Test results published in patent US12011444B2, “N-substituted indole derivatives as PGE2 receptor modulators” (Idorsia Pharmaceuticals Ltd, priority 2015, dated 2024).

What was measured:
[1] = biological target: EP2 (Homo sapiens (Human), UniProt P43116);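 also: antagonism of PGE2-stimulated cAMP accumulation in SF295 human glioblastoma cells with endogenous EP2, cAMP read by HTRF, expressed relative to DMSO control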
Description: Human tumor cell lines expressing endogenously either EP4 or EP2 are used and cAMP accumulation in cells upon PGE2 stimulation is monitored. SF295 glioblastoma cells express high endogenous EP2 and no EP4, whereas BT549 breast cancer cells, express high endogenous EP4 levels and very low EP2 levels.
As a detection method for cAMP the HTRF (homogeneous time resolved fluorescence) Cisbio kit (HTRF cAMP dynamic 2 kit 20′000 tests Cisbio Cat. #62AM4PEC) was used, which is based on a competitive immunoassay using a Cryptate-labeled anti-cAMP antibody and d2-labeled cAMP. Native cAMP produced by cells or unlabeled cAMP (for the standard curve) compete with exogenously added d2-labeled cAMP (acceptor) for binding to monoclonal anti-cAMP-Eu3+Cryptate (donor). A FRET signal (Fluorescence Resonance Energy Transfer) is obtained only if the labeled anti-cAMP antibody binds the d2 labelled cAMP, thus the specific signal (i.e. energy transfer) is inversely proportional to the concentration of cAMP in the standard or sample.
The SF295 cells (NCI/No. 0503170) are detached from culture dishes with a cell dissociation buffer (Invitrogen, 13151-014), and collected in growing medium (GM: RPM11640 (Invitrogen 21875)/10% FCS, 1% Penicilin/streptomycin). Cells are counted washed and resuspended in assay buffer (AB; HBSS, 20 mM HEPES, 0.2% BSA; 2 mM IBMX). 4,000 cells in 5 μl of AB are seeded per well of a small volume 384 well plate (black with flat bottom, Greiner 784076).
PGE2 (Cayman 14010, stock solution: 75 μM in DMSO) is used as agonist at 75 nM final concentration, corresponding to EC80.
Two point five microliters of diluted compounds are transferred into the assay plate. Plate is pre-incubated 45 minutes at room temperature. Subsequently, 2.5 microliters of PGE2 (final conc. 75 nM) are transferred into the assay plate. Plate is incubated 30 minutes at room temperature. Five μl of each donor (anti-cAMP cryptate) and acceptor (cAMP-d2) are added and the plate is incubated another hour at room temperature in the dark and then read using a BMG LABTECH PHERAstar reader (Excitation: 337 nm, Emission: 620 and 665 nm).
The obtained Delta F (fluorescence) values (665 nm/620 nM) are converted into % cAMP values using the measurements of the cAMP calibrator provided in the kit. For each compound concentration the percentage of cAMP compared to DMSO control value as average±STDEV (each concentration is measured in duplicate) is calculated.
IC50 values and curves are generated with XLfit software (IDBS) using Dose-Response One Site model 203. When compounds were measured multiple times, mean values are given.

[2] = biological target: EP4 (Homo sapiens (Human), UniProt P35408); assay: hEP4 cAMP assay (BT549 breast cancer cells, HTRF cAMP); assay type: cell-based; details: antagonistic activity; mean values where measured multiple times
Description: Plate is pre-incubated 45 minutes at room temperature. Subsequently, 2.5 microliters of PGE2 (final conc. 6 nM) are transferred into the assay plate. Plate is incubated 30 minutes at room temperature.

EP4, sequence (P35408 whole entry): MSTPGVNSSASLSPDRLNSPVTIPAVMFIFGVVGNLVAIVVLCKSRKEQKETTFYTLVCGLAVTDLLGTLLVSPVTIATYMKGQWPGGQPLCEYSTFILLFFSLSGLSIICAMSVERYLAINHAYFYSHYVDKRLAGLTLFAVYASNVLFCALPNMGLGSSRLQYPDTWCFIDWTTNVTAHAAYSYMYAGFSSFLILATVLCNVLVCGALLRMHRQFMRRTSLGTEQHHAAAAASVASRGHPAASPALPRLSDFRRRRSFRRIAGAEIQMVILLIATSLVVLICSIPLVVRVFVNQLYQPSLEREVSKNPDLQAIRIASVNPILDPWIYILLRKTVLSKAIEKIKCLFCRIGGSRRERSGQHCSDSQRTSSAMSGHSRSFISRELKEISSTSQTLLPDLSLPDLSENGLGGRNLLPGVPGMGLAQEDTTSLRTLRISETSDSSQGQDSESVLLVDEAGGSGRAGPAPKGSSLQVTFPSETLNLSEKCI
EP2, sequence (P43116 whole entry): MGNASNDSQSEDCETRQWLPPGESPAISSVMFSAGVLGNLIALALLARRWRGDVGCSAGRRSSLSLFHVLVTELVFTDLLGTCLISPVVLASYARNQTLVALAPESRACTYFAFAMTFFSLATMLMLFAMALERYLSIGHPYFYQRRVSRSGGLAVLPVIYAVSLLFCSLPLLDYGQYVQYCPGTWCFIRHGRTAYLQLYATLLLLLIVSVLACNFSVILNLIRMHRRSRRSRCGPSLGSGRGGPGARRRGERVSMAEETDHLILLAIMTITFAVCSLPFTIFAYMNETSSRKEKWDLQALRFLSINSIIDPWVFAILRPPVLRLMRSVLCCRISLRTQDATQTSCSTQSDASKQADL

Row | SMILES | IC50 [1] [nM] | IC50 [2] [nM]
1 | COc1ccc(F)c2c1cc(C)n2CCNc1cc(-c2ccc3oc(C)nc3c2)ncn1 [compound 688] | 80 | 680
2 | COc1ccc(F)c2c1cc(C)n2CCNc1cc(-c2cc(Cl)c(C(=O)O)c(OCC(C)C)c2)ncn1 [compound 690] | 5 | 35
3 | COc1cccc2c1cc(C)n2CCNc1cc(-c2cc(Cl)c(C(=O)O)c(OCC(C)C)c2)ncn1 [compound 691] | 4 | 177
4 | COc1cc(F)cc2c1cc(C)n2CCNc1cc(-c2cc(Cl)c(C(=O)O)c(OCC(C)C)c2)ncn1 [compound 692] | 7 | 64
5 | Cc1cc(F)cc2c1cc(C)n2CCNc1cc(-c2cc(Cl)c(C(=O)O)c(OCC(C)C)c2)ncn1 [compound 693] | 20 | 234
6 | Cc1cc(F)c(F)c2c1cc(C)n2CCNc1cc(-c2cc(Cl)c(C(=O)O)c(OCC(C)C)c2)ncn1 [compound 694] | 49 | 120
7 | Cc1cc2ccccc2n1CCNc1cc(-c2ccc3[nH]ccc3c2)ncn1 [compound 695, [6-(1H-Indol-5-yl)-pyrimidin-4-yl]-[2-(2-methyl-indol-1-yl)-ethyl]-amine] | 4 | 999
8 | Cc1cc(F)c(F)c2c1cc(C)n2CCNc1cc(-c2ccc3[nH]ccc3c2)ncn1 [compound 696, [2-(6,7-Difluoro-2,4-dimethyl-indol-1-yl)-ethyl]-[6-(1H-indol-5-yl)-pyrimidin-4-yl]-amine] | 42 | 131
9 | Cc1cc(F)cc2c1cc(C)n2CCNc1cc(-c2ccc3[nH]ccc3c2)ncn1 [compound 697, [2-(6-Fluoro-2,4-dimethyl-indol-1-yl)-ethyl]-[6-(1H-indol-5-yl)-pyrimidin-4-yl]-amine] | 15 | 77
10 | Cc1ccc(F)c2c1cc(C)n2CCNc1cc(-c2ccc3[nH]ccc3c2)ncn1 [compound 698, [2-(7-Fluoro-2,4-dimethyl-indol-1-yl)-ethyl]-[6-(1H-indol-5-yl)-pyrimidin-4-yl]-amine] | 21 | 79
11 | COc1cc(F)cc2c1cc(C)n2CCNc1cc(-c2ccc3[nH]ccc3c2)ncn1 [compound 699, [2-(6-Fluoro-4-methoxy-2-methyl-indol-1-yl)-ethyl]-[6-(1H-indol-5-yl)-pyrimidin-4-yl]-amine] | 9 | 63
12 | COc1ccc(F)c2c1cc(C)n2CCNc1cc(-c2ccc3[nH]ccc3c2)ncn1 [compound 700, [2-(7-Fluoro-4-methoxy-2-methyl-indol-1-yl)-ethyl]-[6-(1H-indol-5-yl)-pyrimidin-4-yl]-amine] | 7 | 44
13 | COc1cc(F)c(F)c2c1cc(C)n2CCNc1cc(-c2ccc3[nH]ccc3c2)ncn1 [compound 701, [2-(6,7-Difluoro-4-methoxy-2-methyl-indol-1-yl)-ethyl]-[6-(1H-indol-5-yl)-pyrimidin-4-yl]-amine] | 15 | 24
14 | Cc1cc(F)c(F)c2c1cc(C)n2CCNc1cc(-c2ccc3c(ccn3C)c2)ncn1 [compound 702] | 165 | 225
15 | Cc1ccc(F)c2c1cc(C)n2CCNc1cc(-c2ccc3c(ccn3C)c2)ncn1 [compound 704, [2-(7-Fluoro-2,4-dimethyl-indol-1-yl)-ethyl]-[6-(1-methyl-1H-indol-5-yl)-pyrimidin-4-yl]-amine] | 47 | 177
16 | COc1cc(F)cc2c1cc(C)n2CCNc1cc(-c2ccc3c(ccn3C)c2)ncn1 [compound 705, [2-(6-Fluoro-4-methoxy-2-methyl-indol-1-yl)-ethyl]-[6-(1-methyl-1H-indol-5-yl)-pyrimidin-4-yl]-amine] | 21 | 80

Row | SMILES | IC50 [1] [nM] | IC50 [2] [nM]
17 | COc1ccc(F)c2c1cc(C)n2CCNc1cc(-c2ccc3c(ccn3C)c2)ncn1 [compound 706, [2-(7-Fluoro-4-methoxy-2-methyl-indol-1-yl)-ethyl]-[6-(1-methyl-1H-indol-5-yl)-pyrimidin-4-yl]-amine] | 10 | 55
18 | COc1cc(F)c(F)c2c1cc(C)n2CCNc1cc(-c2ccc3c(ccn3C)c2)ncn1 [compound 707, [2-(6,7-Difluoro-4-methoxy-2-methyl-indol-1-yl)-ethyl]-[6-(1-methyl-1H-indol-5-yl)-pyrimidin-4-yl]-amine] | 38 | 57
19 | COc1cc(F)cc2c1cc(C)n2CCNc1cc(-c2ccc(C(=O)CC#N)cc2)ncn1 [compound 709, 3-(4-{6-[2-(6-Fluoro-4-methoxy-2-methyl-indol-1-yl)-ethylamino]-pyrimidin-4-yl}-phenyl)-3-oxo-propionitrile] | 14 | 535
20 | COc1ccc(F)c2c1cc(C)n2CCNc1cc(-c2ccc(C(=O)CC#N)cc2)ncn1 [compound 710, 3-(4-{6-[2-(7-Fluoro-4-methoxy-2-methyl-indol-1-yl)-ethylamino]-pyrimidin-4-yl}-phenyl)-3-oxo-propionitrile] | 15 | 373
21 | COc1cc(F)c(F)c2c1cc(C)n2CCNc1cc(-c2ccc(C(=O)CC#N)cc2)ncn1 [compound 711, 3-(4-{6-[2-(6,7-Difluoro-4-methoxy-2-methyl-indol-1-yl)-ethylamino]-pyrimidin-4-yl}-phenyl)-3-oxo-propionitrile] | 16 | 429
22 | Cc1cc(-c2ccc(-c3cc(NCCn4c(C)cc5c(C)cc(F)cc54)ncn3)cc2)on1 [compound 713] | 73 | 267
23 | Cc1cc(-c2ccc(-c3cc(NCCn4c(C)cc5c(C)ccc(F)c54)ncn3)cc2)on1 [compound 714] | 72 | 958
24 | COc1cc(F)cc2c1cc(C)n2CCNc1cc(-c2ccc(-c3cc(C)no3)cc2)ncn1 [compound 715, [2-(6-Fluoro-4-methoxy-2-methyl-indol-1-yl)-ethyl]-{6-[4-(3-methyl-isoxazol-5-yl)-phenyl]-pyrimidin-4-yl}-amine] | 16 | 240
25 | COc1ccc(F)c2c1cc(C)n2CCNc1cc(-c2ccc(-c3cc(C)no3)cc2)ncn1 [compound 716, [2-(7-Fluoro-4-methoxy-2-methyl-indol-1-yl)-ethyl]-{6-[4-(3-methyl-isoxazol-5-yl)-phenyl]-pyrimidin-4-yl}-amine] | 12 | 510
26 | COc1cc(F)c(F)c2c1cc(C)n2CCNc1cc(-c2ccc(-c3cc(C)no3)cc2)ncn1 [compound 717] | 242 | 527
27 | Cc1cnoc1-c1ccc(-c2cc(NCCn3c(C)cc4c(C)cc(F)c(F)c43)ncn2)cc1 [compound 719] | 223 | 389
28 | COc1cccc2c1cc(C)n2CCNc1cc(-c2cc(Cl)c(C(=O)O)c(OCC(F)(F)F)c2)ncn1 [compound 720] | 10 | 150
29 | COc1cc(F)cc2c1cc(C)n2CCNc1cc(-c2cc(Cl)c(C(=O)O)c(OCC(F)(F)F)c2)ncn1 [compound 721] | 18 | 60
30 | COc1cc(F)c(F)c2c1cc(C)n2CCNc1cc(-c2cc(Cl)c(C(=O)O)c(OCC(F)(F)F)c2)ncn1 [compound 722] | 32 | 80
31 | Cc1cc(F)cc2c1cc(C)n2CCNc1cc(-c2cc(Cl)c(C(=O)O)c(OCC(F)(F)F)c2)ncn1 [compound 723] | 37 | 287
32 | Cc1cc(F)c(F)c2c1cc(C)n2CCNc1cc(-c2cc(Cl)c(C(=O)O)c(OCC(F)(F)F)c2)ncn1 [compound 724] | 57 | 206
